Each structure is given as a SMILES string.

In the first experiment the test system is DLD-1 BRCA2−/− cells. Kind of experiment: Homologous recombination synthetic lethal inhibition of proliferation, DLD-1 BRCA2-/- (Cell Titre Glo 3D). In kind it is cell-based. Conditions: Homo sapiens, DLD-1, DLD-1 BRCA2-/- proliferation; column head only partly shown; read-out: POLQ PD Prolif Lumin (converted). Put shortly:
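Luminescent Cell Titre Glo 3D readout, taken on day 12 for homologous-recombination-deficient DLD-1 BRCA2−/− and day 7 for the wild-type control, after compound refresh on day 6. Compounds spanned 10 μM to 0.51 nM in three-fold steps; IC50 defined as 50% reduction of average maximum signal.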
As for `Cc1ccnc(Cn2c(-c3ccc(N4CCNCC4=O)cc3Cl)nc3c(OC4(C)CC4)ncnc32)c1` [Example T202, 1-(3-chloro-4-(6-(1-methylcyclopropoxy)-9-((4-methylpyridin-2-yl)methyl)-9H-purin-8-yl)phenyl)piperazin-2-one], the IC50 was 2510 nM.

Still in this experiment, the particulars now being: Homo sapiens, DLD-1, first proliferation column (c5); DLD-1 BRCA2-/-; read-out: POLQ PD Prolif Lumin (converted).
`Cc1ccnc(Cn2c(-c3ccc(C(=O)N4CC(F)C4)cc3Cl)nc3c(OC4(C)CC4)ncnc32)c1` [Example T153, (3-chloro-4-(6-(1-methylcyclopropoxy)-9-((4-methylpyridin-2-yl)methyl)-9H-purin-8-yl)phenyl)(3-fluoroazetidin-1-yl)methanone]: the IC50 was 501 nM.
`Cc1ccnc(Cn2c(-c3ccc(OCC(=O)NCC(F)(F)F)cc3Cl)nc3c(OC4(C)CC4)ncnc32)c1` [Example T154, 2-(3-chloro-4-(6-(1-methylcyclopropoxy)-9-((4-methylpyridin-2-yl)methyl)-9H-purin-8-yl)phenoxy)-N-(2,2,2-trifluoroethyl)acetamide]: the IC50 is 200 nM.
Consider `CC1(Oc2ncnc3c2nc(-c2ccc(CCCC(=O)O)cc2Cl)n3Cc2cccc(Cl)c2)CC1` [Example T155, 4-(3-chloro-4-(9-(3-chlorobenzyl)-6-(1-methylcyclopropoxy)-9H-purin-8-yl)phenyl)butanoic acid], for which the IC50 was 631 nM.
As to `COC(=O)CCOc1ccc(-c2nc3c(OC4(C)CC4)ncnc3n2Cc2cccc(Cl)c2)c(Cl)c1` [Example T156, methyl 3-(3-chloro-4-(9-(3-chlorobenzyl)-6-(1-methylcyclopropoxy)-9H-purin-8-yl)phenoxy)propanoate], the IC50 was 200 nM.
Turning to `C[C@H](COc1cccc(-c2nc3c(OC4(C)CC4)ncnc3n2Cc2cccc(Cl)c2)c1Cl)C(=O)O` [Example T159, (R)-3-(2-chloro-3-(9-(3-chlorobenzyl)-6-(1-methylcyclopropoxy)-9H-purin-8-yl)phenoxy)-2-methylpropanoic acid], the IC50 was 126 nM.
For the compound `C[C@@H](COc1cccc(-c2nc3c(OC4(C)CC4)ncnc3n2Cc2cccc(Cl)c2)c1Cl)C(=O)O` [Example T160, (S)-3-(2-chloro-3-(9-(3-chlorobenzyl)-6-(1-methylcyclopropoxy)-9H-purin-8-yl)phenoxy)-2-methylpropanoic acid], the IC50 is 200 nM.
As to `CC1(Oc2ncnc3c2nc(-c2cccc(OCCOCC(=O)O)c2Cl)n3Cc2cccc(Cl)c2)CC1` [Example T162, 2-(2-(2-chloro-3-(9-(3-chlorobenzyl)-6-(1-methylcyclopropoxy)-9H-purin-8-yl)phenoxy)ethoxy)acetic acid], the IC50 is 126 nM.
In the case of `CC1(Oc2ncnc3c2nc(-c2cccc(OCCCc4nn[nH]n4)c2Cl)n3Cc2cccc(Cl)c2)CC1` [Example T163, 8-(3-(3-(2H-tetrazol-5-yl)propoxy)-2-chlorophenyl)-9-(3-chlorobenzyl)-6-(1-methylcyclopropoxy)-9H-purine], the IC50 was 251 nM.
`CC1(Oc2ncnc3c2nc(-c2ccc(OCCCc4nnn[nH]4)cc2Cl)n3Cc2cccc(Cl)c2)CC1` [Example T164, 8-(4-(3-(1H-tetrazol-5-yl)propoxy)-2-chlorophenyl)-9-(3-chlorobenzyl)-6-(1-methylcyclopropoxy)-9H-purine]: the IC50 was 794 nM.
Turning to `Cc1ccnc(Cn2c(-c3ccc(CC(=O)NCC(F)F)cc3Cl)nc3c(OC4(C)CC4)ncnc32)c1` [Example T165, 2-(3-chloro-4-(6-(1-methylcyclopropoxy)-9-((4-methylpyridin-2-yl)methyl)-9H-purin-8-yl)phenyl)-N-(2,2-difluoroethyl)acetamide], the IC50 is 100 nM.
On the same count and under the same terms, the value for `Cc1ccnc(Cn2c(-c3ccc(OCC(=O)NCC(F)F)cc3Cl)nc3c(OC4(C)CC4)ncnc32)c1` [Example T166, 2-(3-chloro-4-(6-(1-methylcyclopropoxy)-9-((4-methylpyridin-2-yl)methyl)-9H-purin-8-yl)phenoxy)-N-(2,2-difluoroethyl)acetamide] was 316 nM.
The same measure, in the same setting: the value for `Cc1cccc(Cn2c(-c3ccc(OCCC(=O)O)cc3Cl)nc3c(OC4(C)CC4)ncnc32)c1` [Example T167, 3-(3-chloro-4-(9-(3-methylbenzyl)-6-(1-methylcyclopropoxy)-9H-purin-8-yl)phenoxy)propanoic acid] was 794 nM; that for `Cc1ccccc1Cn1c(-c2ccc(OCCC(=O)O)cc2Cl)nc2c(OC3(C)CC3)ncnc21` [Example T168, 3-(3-chloro-4-(9-(2-methylbenzyl)-6-(1-methylcyclopropoxy)-9H-purin-8-yl)phenoxy)propanoic acid] was 1260 nM.
With `Cc1ccnc(Cn2c(-c3ccc(C(=O)NC4CC4)cc3Cl)nc3c(OC4(C)CC4)ncnc32)c1` [Example T170, 3-chloro-N-cyclopropyl-4-(6-(1-methylcyclopropoxy)-9-((4-methylpyridin-2-yl)methyl)-9H-purin-8-yl)benzamide], the IC50 is 631 nM.
On to `Cc1ccnc(Cn2c(-c3ccc(C(=O)NC4COC4)cc3Cl)nc3c(OC4(C)CC4)ncnc32)c1` [Example T177, 3-chloro-4-(6-(1-methylcyclopropoxy)-9-((4-methylpyridin-2-yl)methyl)-9H-purin-8-yl)-N-(oxetan-3-yl)benzamide], for which the IC50 was 1000 nM.
As to `Cc1ccnc(Cn2c(-c3ccc(C(=O)N4CC(O)C4)cc3Cl)nc3c(OC4(C)CC4)ncnc32)c1` [Example T180, (3-chloro-4-(6-(1-methylcyclopropoxy)-9-((4-methylpyridin-2-yl)methyl)-9H-purin-8-yl)phenyl)(3-hydroxyazetidin-1-yl)methanone], the IC50 was 1000 nM.
With `Cc1ccnc(Cn2c(-c3ccc(N4CCOCC4=O)cc3Cl)nc3c(OC4(C)CC4)ncnc32)c1` [Example T182, 4-(3-chloro-4-(6-(1-methylcyclopropoxy)-9-((4-methylpyridin-2-yl)methyl)-9H-purin-8-yl)phenyl)morpholin-3-one], the IC50 is 631 nM.
Regarding `Cc1ccnc(Cn2c(-c3ccc(O[C@H]4CNC(=O)C4)cc3Cl)nc3c(OC4(C)CC4)ncnc32)c1` [Example T183, (R)-4-(3-chloro-4-(6-(1-methylcyclopropoxy)-9-((4-methylpyridin-2-yl)methyl)-9H-purin-8-yl)phenoxy)pyrrolidin-2-one], the IC50 was 398 nM.
Regarding `Cc1ccnc(Cn2c(-c3ccc(O[C@@H]4CNC(=O)C4)cc3Cl)nc3c(OC4(C)CC4)ncnc32)c1` [Example T184, (S)-4-(3-chloro-4-(6-(1-methylcyclopropoxy)-9-((4-methylpyridin-2-yl)methyl)-9H-purin-8-yl)phenoxy)pyrrolidin-2-one], the IC50 was 251 nM.
Consider `Cc1ccnc(Cn2c(-c3ccc(OC[C@H]4CNC(=O)O4)cc3Cl)nc3c(OC4(C)CC4)ncnc32)c1` [Example T188, (R)-5-((3-chloro-4-(6-(1-methylcyclopropoxy)-9-((4-methylpyridin-2-yl)methyl)-9H-purin-8-yl)phenoxy)methyl)oxazolidin-2-one], for which the IC50 was 501 nM.
As to `CC1(Oc2ncnc3c2nc(-c2ccc(OCCC(=O)NS(C)(=O)=O)cc2Cl)n3Cc2cccc(Cl)c2)CC1` [Example T189, 3-(3-chloro-4-(9-(3-chlorobenzyl)-6-(1-methylcyclopropoxy)-9H-purin-8-yl)phenoxy)-N-(methylsulfonyl)propanamide], the IC50 is 3980 nM.
Consider `Cc1ccnc(Cn2c(-c3ccc(C(=O)NC[C@H](C)F)cc3Cl)nc3c(OC4(C)CC4)ncnc32)c1` [Example T190, (S)-3-chloro-N-(2-fluoropropyl)-4-(6-(1-methylcyclopropoxy)-9-((4-methylpyridin-2-yl)methyl)-9H-purin-8-yl)benzamide], for which the IC50 was 398 nM.
`Cc1ccnc(Cn2c(-c3ccc(C(=O)NCCCF)cc3Cl)nc3c(OC4(C)CC4)ncnc32)c1` [Example T191, 3-chloro-N-(3-fluoropropyl)-4-(6-(1-methylcyclopropoxy)-9-((4-methylpyridin-2-yl)methyl)-9H-purin-8-yl)benzamide]: the IC50 was 398 nM.
With `Cc1ccnc(Cn2c(-c3ccc(OCC4COC4)cc3Cl)nc3c(OC4(C)CC4)ncnc32)c1` [Example T193, 8-(2-chloro-4-(oxetan-3-ylmethoxy)phenyl)-6-(1-methylcyclopropoxy)-9-((4-methylpyridin-2-yl)methyl)-9H-purine], the IC50 was 251 nM.
For the compound `Cc1ccnc(Cn2c(-c3ccc(OC[C@H]4CCO4)cc3Cl)nc3c(OC4(C)CC4)ncnc32)c1` [Example T194, (R)-8-(2-chloro-4-(oxetan-2-ylmethoxy)phenyl)-6-(1-methylcyclopropoxy)-9-((4-methylpyridin-2-yl)methyl)-9H-purine], the IC50 was 251 nM.
With `CNC(=O)COc1ccc(-c2nc3c(OC4(C)CC4)ncnc3n2CCc2ccccc2)c(Cl)c1` [Example T195, 2-(3-chloro-4-(6-(1-methylcyclopropoxy)-9-phenethyl-9H-purin-8-yl)phenoxy)-N-methylacetamide], the IC50 is 1260 nM.
Consider `Cc1ccnc(Cn2c(-c3ccc(O[C@H]4CCOC4)cc3Cl)nc3c(OC4(C)CC4)ncnc32)c1` [Example T196, (S)-8-(2-chloro-4-((tetrahydrofuran-3-yl)oxy)phenyl)-6-(1-methylcyclopropoxy)-9-((4-methylpyridin-2-yl)methyl)-9H-purine], for which the IC50 was 100 nM.
On the same count and under the same terms, the value for `Cc1ccnc(Cn2c(-c3ccc(OCC4(O)COC4)cc3Cl)nc3c(OC4(C)CC4)ncnc32)c1` [Example T200, 3-((3-chloro-4-(6-(1-methylcyclopropoxy)-9-((4-methylpyridin-2-yl)methyl)-9H-purin-8-yl)phenoxy)methyl)oxetan-3-ol] was 316 nM; that for `Cc1ccnc(Cn2c(-c3ccc(N4CCNC(=O)C4)cc3Cl)nc3c(OC4(C)CC4)ncnc32)c1` [Example T201, 4-(3-chloro-4-(6-(1-methylcyclopropoxy)-9-((4-methylpyridin-2-yl)methyl)-9H-purin-8-yl)phenyl)piperazin-2-one] was 501 nM.
